Source: ChEMBL document CHEMBL4507315 (2021)

Key:
[1] = molecular target: Mitogen-activated protein kinase kinase kinase 20 (Homo sapiens, UniProt Q9NYL2); assay: NanoBRET (MAP3K20)
[2] = molecular target: AP2-associated protein kinase 1 (Homo sapiens) (UniProt Q2M2I8); conditions: Compound concentration 100.0 nM
[3] = molecular target: Activin receptor type-1 (Homo sapiens) (UniProt Q04771); conditions: Compound concentration 100.0 nM
[4] = molecular target: Atypical kinase COQ8B, mitochondrial (Homo sapiens) (UniProt Q96D53); conditions: Compound concentration 100.0 nM
[5] = molecular target: Ankyrin repeat and protein kinase domain-containing protein 1 (Homo sapiens) (UniProt Q8NFD2); conditions: Compound concentration 100.0 nM
[6] = molecular target: Cyclin-dependent kinase 5 (Homo sapiens) (UniProt Q00535); conditions: Compound concentration 100.0 nM
[7] = molecular target: Dual specificity protein kinase CLK3 (Homo sapiens) (UniProt P49761); conditions: Compound concentration 100.0 nM
[8] = molecular target: Casein kinase I isoform alpha (Homo sapiens) (UniProt P48729); conditions: Compound concentration 100.0 nM
[9] = molecular target: Casein kinase I isoform epsilon (Homo sapiens) (UniProt P49674); conditions: Compound concentration 100.0 nM
[10] = molecular target: Death-associated protein kinase 3 (Homo sapiens) (UniProt O43293); conditions: Compound concentration 100.0 nM
[11] = molecular target: Epithelial discoidin domain-containing receptor 1 (Homo sapiens) (UniProt Q08345); conditions: Compound concentration 100.0 nM
[12] = molecular target: Myotonin-protein kinase (Homo sapiens) (UniProt Q09013); conditions: Compound concentration 100.0 nM
[13] = tested on: Epidermal growth factor receptor (Homo sapiens), P00533 [G719C]; conditions: Compound concentration 100.0 nM
[14] = molecular target: Ephrin type-B receptor 4 (Homo sapiens) (UniProt P54760); conditions: Compound concentration 100.0 nM
[15] = molecular target: Beta-adrenergic receptor kinase 1 (Homo sapiens) (UniProt P25098); conditions: Compound concentration 100.0 nM
[16] = molecular target: G protein-coupled receptor kinase 4 (Homo sapiens) (UniProt P32298); conditions: Compound concentration 100.0 nM
[17] = molecular target: Rhodopsin kinase GRK7 (Homo sapiens) (UniProt Q8WTQ7); conditions: Compound concentration 100.0 nM
[18] = molecular target: Glycogen synthase kinase-3 beta (Homo sapiens) (UniProt P49841); conditions: Compound concentration 100.0 nM
[19] = molecular target: Homeodomain-interacting protein kinase 1 (Homo sapiens) (UniProt Q86Z02); conditions: Compound concentration 100.0 nM
[20] = molecular target: Homeodomain-interacting protein kinase 4 (Homo sapiens) (UniProt Q8NE63); conditions: Compound concentration 100.0 nM
[21] = molecular target: Serine/threonine-protein kinase LATS2 (Homo sapiens) (UniProt Q9NRM7); conditions: Compound concentration 100.0 nM
[22] = molecular target: Tyrosine-protein kinase Lyn (Homo sapiens) (UniProt P07948); conditions: Compound concentration 100.0 nM
[23] = molecular target: Mitogen-activated protein kinase kinase kinase kinase 3 (Homo sapiens) (UniProt Q8IVH8); conditions: Compound concentration 100.0 nM
[24] = molecular target: Mitogen-activated protein kinase kinase kinase kinase 5 (Homo sapiens) (UniProt Q9Y4K4); conditions: Compound concentration 100.0 nM
[25] = molecular target: Dual specificity mitogen-activated protein kinase kinase 5 (Homo sapiens) (UniProt Q13163); conditions: Compound concentration 100.0 nM
[26] = molecular target: Dual specificity mitogen-activated protein kinase kinase 6 (Homo sapiens) (UniProt P52564); conditions: Compound concentration 100.0 nM
[27] = molecular target: Serine/threonine-protein kinase Nek10 (Homo sapiens) (UniProt Q6ZWH5); conditions: Compound concentration 100.0 nM
[28] = molecular target: Serine/threonine-protein kinase Nek3 (Homo sapiens) (UniProt P51956); conditions: Compound concentration 100.0 nM
[29] = molecular target: Serine/threonine-protein kinase Nek9 (Homo sapiens) (UniProt Q8TD19); conditions: Compound concentration 100.0 nM
[30] = tested on: Phosphatidylinositol 4,5-bisphosphate 3-kinase catalytic subunit alpha isoform (Homo sapiens), P42336 [Q546K]; conditions: Compound concentration 100.0 nM
[31] = molecular target: Phosphatidylinositol 4-phosphate 5-kinase type-1 alpha (Homo sapiens) (UniProt Q99755); conditions: Compound concentration 100.0 nM
[32] = molecular target: Ribosomal protein S6 kinase alpha-1 (Homo sapiens) (UniProt Q15418); conditions: Compound concentration 100.0 nM
[33] = molecular target: Ribosomal protein S6 kinase alpha-3 (Homo sapiens) (UniProt P51812); conditions: Compound concentration 100.0 nM
[34] = molecular target: Ribosomal protein S6 kinase alpha-2 (Homo sapiens) (UniProt Q15349); conditions: Compound concentration 100.0 nM
[35] = molecular target: Uncharacterized serine/threonine-protein kinase SBK3 (Homo sapiens) (UniProt P0C264); conditions: Compound concentration 100.0 nM
[36] = molecular target: SRSF protein kinase 3 (Homo sapiens) (UniProt Q9UPE1); conditions: Compound concentration 100.0 nM
[37] = molecular target: Tyrosine-protein kinase SYK (Homo sapiens) (UniProt P43405); conditions: Compound concentration 100.0 nM
[38] = molecular target: Dual specificity testis-specific protein kinase 1 (Homo sapiens) (UniProt Q15569); conditions: Compound concentration 100.0 nM
[39] = molecular target: Serine/threonine-protein kinase ULK1 (Homo sapiens) (UniProt O75385); conditions: Compound concentration 100.0 nM
[40] = molecular target: Tyrosine-protein kinase Yes (Homo sapiens) (UniProt P07947); conditions: Compound concentration 100.0 nM
[41] = molecular target: 5-hydroxytryptamine receptor 6 (Homo sapiens) (UniProt P50406); conditions: Compound concentration 10.0 uM
[42] = molecular target: Sodium-dependent dopamine transporter (Homo sapiens) (UniProt Q01959); conditions: Compound concentration 10.0 uM
[43] = molecular target: Mu-type opioid receptor (Homo sapiens) (UniProt P35372); conditions: Compound concentration 10.0 uM
[44] = molecular target: Alpha-1A adrenergic receptor (Homo sapiens) (UniProt P35348); conditions: Compound concentration 10.0 uM
[45] = molecular target: Muscarinic acetylcholine receptor M3 (Homo sapiens) (UniProt P20309); conditions: Compound concentration 10.0 uM
[46] = molecular target: Sigma intracellular receptor 2 (Homo sapiens, UniProt Q5BJF2); conditions: Compound concentration 10.0 uM
Sigma intracellular receptor 2, sequence (Q5BJF2 whole entry): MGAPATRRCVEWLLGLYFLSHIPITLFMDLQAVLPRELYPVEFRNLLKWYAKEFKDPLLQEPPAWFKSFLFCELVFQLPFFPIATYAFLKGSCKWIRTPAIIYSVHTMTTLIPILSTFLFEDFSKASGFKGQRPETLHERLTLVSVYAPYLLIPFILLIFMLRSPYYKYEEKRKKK

Tyrosine-protein kinase Yes (Homo sapiens), sequence (P07947 2-543 limits assumed): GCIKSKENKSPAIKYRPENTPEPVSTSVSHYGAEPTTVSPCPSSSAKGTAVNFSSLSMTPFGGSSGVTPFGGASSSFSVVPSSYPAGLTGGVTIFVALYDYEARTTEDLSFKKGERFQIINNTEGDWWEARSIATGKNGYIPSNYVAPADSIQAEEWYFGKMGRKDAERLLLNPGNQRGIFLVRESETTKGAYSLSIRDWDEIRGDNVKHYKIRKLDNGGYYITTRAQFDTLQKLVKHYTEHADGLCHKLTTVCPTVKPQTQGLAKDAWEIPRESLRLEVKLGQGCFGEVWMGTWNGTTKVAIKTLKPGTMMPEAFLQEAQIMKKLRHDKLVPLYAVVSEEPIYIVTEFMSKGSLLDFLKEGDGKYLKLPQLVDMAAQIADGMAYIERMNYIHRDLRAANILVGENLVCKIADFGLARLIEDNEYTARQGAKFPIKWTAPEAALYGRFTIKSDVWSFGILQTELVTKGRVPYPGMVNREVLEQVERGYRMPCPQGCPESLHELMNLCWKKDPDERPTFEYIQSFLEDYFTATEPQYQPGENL
Dual specificity testis-specific protein kinase 1 (Homo sapiens), sequence (Q15569 whole entry, looked up): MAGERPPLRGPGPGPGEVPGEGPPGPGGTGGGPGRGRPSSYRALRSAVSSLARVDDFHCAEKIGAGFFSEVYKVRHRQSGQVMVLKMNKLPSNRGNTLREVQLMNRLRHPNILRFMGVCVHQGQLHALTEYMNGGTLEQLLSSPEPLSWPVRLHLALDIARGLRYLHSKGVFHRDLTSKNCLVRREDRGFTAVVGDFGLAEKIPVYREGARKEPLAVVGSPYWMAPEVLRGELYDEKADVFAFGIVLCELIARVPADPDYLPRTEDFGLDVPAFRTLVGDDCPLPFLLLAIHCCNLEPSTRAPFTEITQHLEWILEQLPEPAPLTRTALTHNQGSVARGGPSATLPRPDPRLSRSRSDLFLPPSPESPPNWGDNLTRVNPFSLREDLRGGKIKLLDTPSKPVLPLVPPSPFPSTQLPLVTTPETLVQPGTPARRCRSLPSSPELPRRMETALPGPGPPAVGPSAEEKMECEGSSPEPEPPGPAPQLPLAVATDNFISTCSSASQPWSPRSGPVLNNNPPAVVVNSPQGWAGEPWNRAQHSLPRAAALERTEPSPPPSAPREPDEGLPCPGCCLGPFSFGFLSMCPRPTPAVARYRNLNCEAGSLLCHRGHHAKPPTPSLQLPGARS
AP2-associated protein kinase 1 (Homo sapiens), sequence (Q2M2I8 whole entry, looked up): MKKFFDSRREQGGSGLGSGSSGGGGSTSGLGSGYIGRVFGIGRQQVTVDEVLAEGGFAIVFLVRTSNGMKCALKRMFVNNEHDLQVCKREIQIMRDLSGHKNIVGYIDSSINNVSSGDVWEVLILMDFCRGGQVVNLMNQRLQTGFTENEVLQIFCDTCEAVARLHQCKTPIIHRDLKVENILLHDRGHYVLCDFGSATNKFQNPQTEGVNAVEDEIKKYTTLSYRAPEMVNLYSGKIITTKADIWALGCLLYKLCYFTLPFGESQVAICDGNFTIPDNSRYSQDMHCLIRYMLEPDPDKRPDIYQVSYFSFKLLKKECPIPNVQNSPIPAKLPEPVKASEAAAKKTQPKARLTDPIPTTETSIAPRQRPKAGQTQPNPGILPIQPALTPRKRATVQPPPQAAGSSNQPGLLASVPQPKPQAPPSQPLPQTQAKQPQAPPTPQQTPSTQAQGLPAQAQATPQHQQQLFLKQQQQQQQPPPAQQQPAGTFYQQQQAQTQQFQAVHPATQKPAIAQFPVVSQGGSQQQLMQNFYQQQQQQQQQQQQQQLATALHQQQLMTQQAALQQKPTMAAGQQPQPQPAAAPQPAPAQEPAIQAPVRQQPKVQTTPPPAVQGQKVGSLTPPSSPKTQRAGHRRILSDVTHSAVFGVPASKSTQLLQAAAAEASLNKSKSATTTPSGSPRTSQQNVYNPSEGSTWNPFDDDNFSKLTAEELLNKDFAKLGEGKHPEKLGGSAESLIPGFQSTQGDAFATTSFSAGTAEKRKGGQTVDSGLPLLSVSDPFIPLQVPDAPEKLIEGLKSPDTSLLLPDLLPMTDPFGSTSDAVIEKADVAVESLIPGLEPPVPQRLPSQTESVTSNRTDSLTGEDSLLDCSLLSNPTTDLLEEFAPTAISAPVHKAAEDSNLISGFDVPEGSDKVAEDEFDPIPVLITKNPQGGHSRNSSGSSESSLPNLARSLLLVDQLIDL
Serine/threonine-protein kinase Nek10 (Homo sapiens), sequence (Q6ZWH5 whole entry): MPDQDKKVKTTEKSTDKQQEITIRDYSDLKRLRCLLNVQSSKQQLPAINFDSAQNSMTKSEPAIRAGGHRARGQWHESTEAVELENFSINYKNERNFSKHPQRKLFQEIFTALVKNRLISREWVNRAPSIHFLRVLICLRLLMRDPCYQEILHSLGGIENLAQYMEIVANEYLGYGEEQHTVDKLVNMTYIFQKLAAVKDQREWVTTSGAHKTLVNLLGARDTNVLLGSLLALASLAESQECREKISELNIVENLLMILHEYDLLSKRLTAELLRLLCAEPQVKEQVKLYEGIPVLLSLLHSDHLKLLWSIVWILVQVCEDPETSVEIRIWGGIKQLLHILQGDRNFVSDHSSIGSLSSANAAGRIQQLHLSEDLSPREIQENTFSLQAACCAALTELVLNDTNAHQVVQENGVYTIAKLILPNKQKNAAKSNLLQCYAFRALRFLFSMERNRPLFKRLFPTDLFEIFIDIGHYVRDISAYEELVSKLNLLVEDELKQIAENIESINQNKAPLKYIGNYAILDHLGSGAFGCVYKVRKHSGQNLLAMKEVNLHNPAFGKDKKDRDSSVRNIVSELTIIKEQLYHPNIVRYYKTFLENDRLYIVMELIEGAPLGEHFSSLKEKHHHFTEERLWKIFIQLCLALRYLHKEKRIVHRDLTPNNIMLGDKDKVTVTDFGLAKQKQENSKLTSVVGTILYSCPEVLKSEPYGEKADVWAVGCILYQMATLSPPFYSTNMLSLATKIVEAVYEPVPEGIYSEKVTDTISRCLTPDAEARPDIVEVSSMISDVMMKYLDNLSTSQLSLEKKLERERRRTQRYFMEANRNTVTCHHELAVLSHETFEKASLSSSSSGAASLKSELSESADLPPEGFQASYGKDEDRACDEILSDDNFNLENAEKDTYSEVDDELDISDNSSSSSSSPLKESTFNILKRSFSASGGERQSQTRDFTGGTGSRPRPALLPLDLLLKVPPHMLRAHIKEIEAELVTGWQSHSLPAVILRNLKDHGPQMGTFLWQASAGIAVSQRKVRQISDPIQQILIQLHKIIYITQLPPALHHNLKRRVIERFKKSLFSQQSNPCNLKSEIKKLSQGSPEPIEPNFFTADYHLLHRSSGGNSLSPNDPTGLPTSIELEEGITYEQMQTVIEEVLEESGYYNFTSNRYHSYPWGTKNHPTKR
Phosphatidylinositol 4,5-bisphosphate 3-kinase catalytic subunit alpha isoform (Homo sapiens), P42336 [Q546K], sequence (P42336 whole entry Q546K, canonical isoform): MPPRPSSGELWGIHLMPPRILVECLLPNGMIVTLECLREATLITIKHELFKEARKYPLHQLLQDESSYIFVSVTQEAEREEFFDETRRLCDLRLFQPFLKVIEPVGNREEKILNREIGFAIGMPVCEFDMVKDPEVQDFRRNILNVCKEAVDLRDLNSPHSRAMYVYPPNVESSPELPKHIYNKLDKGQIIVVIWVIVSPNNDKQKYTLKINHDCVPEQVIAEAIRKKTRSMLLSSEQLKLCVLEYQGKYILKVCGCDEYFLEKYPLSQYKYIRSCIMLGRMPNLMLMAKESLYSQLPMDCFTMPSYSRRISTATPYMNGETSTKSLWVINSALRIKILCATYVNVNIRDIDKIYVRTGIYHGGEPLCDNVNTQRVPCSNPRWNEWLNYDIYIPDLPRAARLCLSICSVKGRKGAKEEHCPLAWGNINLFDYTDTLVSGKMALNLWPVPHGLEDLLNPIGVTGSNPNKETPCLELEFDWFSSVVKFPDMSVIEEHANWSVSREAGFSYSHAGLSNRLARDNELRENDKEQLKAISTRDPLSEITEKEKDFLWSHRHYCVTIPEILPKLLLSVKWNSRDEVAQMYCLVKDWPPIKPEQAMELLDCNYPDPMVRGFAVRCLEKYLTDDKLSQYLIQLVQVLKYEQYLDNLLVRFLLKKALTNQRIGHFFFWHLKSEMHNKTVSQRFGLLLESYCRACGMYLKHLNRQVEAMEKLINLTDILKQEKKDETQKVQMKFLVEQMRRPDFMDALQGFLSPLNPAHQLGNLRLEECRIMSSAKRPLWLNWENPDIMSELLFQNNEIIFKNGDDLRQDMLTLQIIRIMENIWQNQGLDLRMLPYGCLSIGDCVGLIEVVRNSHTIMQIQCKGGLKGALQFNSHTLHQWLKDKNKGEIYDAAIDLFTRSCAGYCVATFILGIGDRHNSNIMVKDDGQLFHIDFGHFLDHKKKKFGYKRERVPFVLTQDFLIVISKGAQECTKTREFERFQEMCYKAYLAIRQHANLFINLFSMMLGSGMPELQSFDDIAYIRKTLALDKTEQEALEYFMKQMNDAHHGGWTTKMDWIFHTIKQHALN
Mu-type opioid receptor (Homo sapiens), sequence (P35372 whole entry): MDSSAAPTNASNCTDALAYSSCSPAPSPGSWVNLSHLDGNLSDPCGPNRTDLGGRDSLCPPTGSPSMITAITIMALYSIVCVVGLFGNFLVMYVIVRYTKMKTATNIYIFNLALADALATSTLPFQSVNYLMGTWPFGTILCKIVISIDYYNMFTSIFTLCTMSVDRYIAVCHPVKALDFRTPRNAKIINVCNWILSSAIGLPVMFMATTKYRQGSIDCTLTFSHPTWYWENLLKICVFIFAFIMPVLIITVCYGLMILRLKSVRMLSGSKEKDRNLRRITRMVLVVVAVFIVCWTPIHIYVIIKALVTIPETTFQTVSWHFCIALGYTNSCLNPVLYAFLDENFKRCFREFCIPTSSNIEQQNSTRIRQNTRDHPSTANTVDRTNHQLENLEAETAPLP

## O=C(NCCCC1CCCCC1)c1ccc(CNC(=O)c2cnn(-c3ccccc3)c2C(F)(F)F)cc1 [SR-321]
[1]
  IC50: 5.8 µM (not active)
[2]
  residual activity: 100%
[3]
  residual activity: 100%
[4]
  residual activity: 100%
[5]
  residual activity: 100%
[6]
  residual activity: 88%
[7]
  residual activity: 100%
[8]
  residual activity: 99%
[9]
  residual activity: 100%
[10]
  residual activity: 92%
[11]
  residual activity: 100%
[12]
  residual activity: 83%
[13]
  residual activity: 96%
[14]
  residual activity: 95%
[15]
  residual activity: 100%
[16]
  residual activity: 100%
[17]
  residual activity: 100%
[18]
  residual activity: 100%
[19]
  residual activity: 99%
[20]
  residual activity: 100%
[21]
  residual activity: 97%
[22]
  residual activity: 100%
[23]
  residual activity: 78%
[24]
  residual activity: 88%
[25]
  residual activity: 73%
[26]
  residual activity: 79%
[27]
  residual activity: 100%
[28]
  residual activity: 100%
[29]
  residual activity: 100%
[30]
  residual activity: 67%
[31]
  residual activity: 100%
[32]
  residual activity: 100%
[33]
  residual activity: 100%
[34]
  residual activity: 96%
[35]
  residual activity: 100%
[36]
  residual activity: 100%
[37]
  residual activity: 100%
[38]
  residual activity: 100%
[39]
  residual activity: 100%
[40]
  residual activity: 100%
[41]
  inhibition: -0.05%
[42]
  inhibition: 22.3%
[43]
  inhibition: 19.4%
[44]
  inhibition: 17.9%
[45]
  inhibition: 19.5%
[46]
  inhibition: 54.8%

## Nc1c(C(=O)NCc2ccc(C(=O)NCCCC3CCCCC3)cc2)cnn1-c1ccccc1 [SR-318]
[1]
  IC50: 0.91 µM (not active)
[2]
  residual activity: 100%
[3]
  residual activity: 100%
[4]
  residual activity: 100%
[5]
  residual activity: 100%
[6]
  residual activity: 100%
[7]
  residual activity: 95%
[8]
  residual activity: 100%
[9]
  residual activity: 98%
[10]
  residual activity: 100%
[11]
  residual activity: 43%
[12]
  residual activity: 77%
[13]
  residual activity: 85%
[14]
  residual activity: 100%
[15]
  residual activity: 100%
[16]
  residual activity: 100%
[17]
  residual activity: 100%
[18]
  residual activity: 100%
[19]
  residual activity: 100%
[20]
  residual activity: 100%
[21]
  residual activity: 100%
[22]
  residual activity: 100%
[23]
  residual activity: 100%
[24]
  residual activity: 100%
[25]
  residual activity: 100%
[26]
  residual activity: 79%
[27]
  residual activity: 100%
[28]
  residual activity: 100%
[29]
  residual activity: 100%
[30]
  residual activity: 96%
[31]
  residual activity: 100%
[32]
  residual activity: 92%
[33]
  residual activity: 100%
[34]
  residual activity: 90%
[35]
  residual activity: 87%
[36]
  residual activity: 100%
[37]
  residual activity: 74%
[38]
  residual activity: 100%
[39]
  residual activity: 100%
[40]
  residual activity: 100%
[41]
  inhibition: 26.8%
[42]
  inhibition: 26.8%
[43]
  inhibition: 41.2%
[44]
  inhibition: 36.9%
[45]
  inhibition: 25.2%
[46]
  inhibition: 45.3%
